SMILES strings stand for the structures.

Data set [1] deals with vitamin D-binding protein. Nature of the data set: Competitive protein binding analysis (CBPA) with 3H-25-OH-vitamin D as tracer, cross reactions. Details: species or system goat. How it is done: In each case 100 μl vitamin D binding protein, isolated from goat serum (1:15000 in assay buffer with 3% (w/v) PEG 6000) together with 10 μl standard, control or sample (10 μl result from the sample preparation) was placed in the wells. The microtitration plate was incubated for 24 hours at 4EC in the dark and subject to shaking. Then, the solution was removed from the wells and the wells washed five times in each case with 200 μl washing buffer.
Insofar as no other indication is given, all reagents, buffers and materials were the same as in above-mentioned Example 3. There served as competitive binding partner (tracer) tritium-labelled 25-OH-vitamin D3. Differing from Example 3, the measurement samples were purified by means of extraction (into individual values). For this purpose, in each case 50 μl sample [non-specific assay buffer NSB, standard, control, patients sample (plasma, serum or urine)] was introduced into a 1.5 ml disposable reaction container, 200 μl acetonitrile added, mixed, the container walls centrifuged free, and the mixture incubated for 20 to 30 minutes at 4EC. The mixture was centrifuged at 1700×g for 10 minutes. The determinations were effected with the results using duplicate values.
For this purpose 25 μl clear result was transferred to a glass test tube (or into a special-RIA-container from Sarstedt, Darmstadt) and 10 μl tracer (3H-25-OH-D), 300 μl assay buffer and 100 μl vitamin D-binding protein (not in NSB) added. The test tube contents were mixed, incubated for one hour at 4EC and, to remove non-bound radioactive tracer, 100 μl activated charcoal suspension (activated charcoal containing phosphate buffer with 0.1% NaN3) was added. The test tube content was mixed, incubated for 3 to 5 minutes at 4EC, and the active charcoal pelletized by means of centrifuging for 10 minutes at 1700×g. Then, in each case 400 μl of the result was transferred to a counter container (7 ml) and, after the addition of 2 ml scintillator liquid such as Aquasafe™ 300 or HiSafe™ III, the radioactivity present in the result was counted (2 minutes in a beta-counter). […]

The subject of data set [2] is vitamin D binding protein from goat serum. Description: RIA for determining competition with 3H-25-OH-vitamin D3 and displacement efficiency. Conditions: tracer 3H-25-OH-vitamin D3. Details: unit not given here. On the procedure: Displacement efficiencies on vitamin D binding protein from goat serum and competition with ^3H-250H-vitamin D3 were measured for three vitamin D derivates using a RIA. The tested derivatives were 25-OH-vitamin D, biotinylated 25-OH-vitamin D3 of example 1 and 25-OH-D3 dimer of example 10.
The dimer having a short spacer has a lower displacement efficiecy than the corresponding biotinylated compound with the longer spacer group. […] For comparision, compound C in WO 97/24127 (Holick et al.) could only displace the tritiated compound from human vitamin D binding protein when it was present in eleven-fold excess. […] A longer spacer group in the vitamin D dimer leads to a higher affinity to DBP. An eleven fold lower affinity on the other hand is typical for vitamin D derivatives lacking the 25 hydroxy group which is essential for high affinity to vitamin D binding protein DBP.

Data set [3] can be described thus: Stability of the 25-OH-D3-biotin compound in protonic solvent (NMR, HPLC). Type of data set: physicochemical. Conditions: protonic solvent pH 4-5; for HPLC analysis, compound intact: 200 days. On the procedure:
In each case 20 mg purified 25-OH-D3-biotin compound (25-OH-vitamin D3-3β-3′[6-N-(biotinyl)-hexamido]amidopropylether) from Example 1 was placed in an NMR test tube to which 1 ml solvent was added. The solvent was a mixture of deuterium chloroform:deuterium acetonitrile: D2O in the ratio 3:2:1 with a pH-value between 4 and 5. The samples were stored for 200 days under the conditions set out below and the NMR spectra were investigated at regular intervals. • Sample 1: light excluded at −20EC; • Sample 2 light excluded at +4−6EC; • Sample 3: light excluded at room temperature; • Sample 4: subject to strong light (on a window ledge) at room temperature.
An HPLC analysis confirmed that samples 1 and 2 were intact even after 200 days in protonic solvent.

The mark [4] stands for this setting: 250 nmol/l added to serum treated with activated charcoal.

In turn, `C=C1CCC(O)C/C1=C\C=C1\CCCC2(C)C1CCC2C(C)CCC(O)C(C)(C)O` (centres unmarked) [24,25-(OH)2-vitamin D3] gave a cross-reaction in data set [1] (setting [4]) of 100%.

Regarding `C=C1CC[C@H](O)C/C1=C/C=C1\CCC[C@]2(C)[C@@H]([C@H](C)CCCC(C)(C)O)CC[C@@H]12` [25-OH-D3, 25-OH-vitamin D3, reference compound], the B/Bo is given as 100 in data set [2] (Conc. 0.1 ng/ml); 92 in data set [2] (Conc. 1 ng/ml); 33 in data set [2] (Conc. 10 ng/ml); 10 in data set [2] (Conc. 100 ng/ml); 7 in data set [2] (Conc. 1000 ng/ml).

`C=C1/C(=C\C=C2/CCC[C@]3(C)[C@@H]([C@H](C)CCCC(C)(C)O)CC[C@@H]23)C[C@@H](O)C[C@@H]1O` [1,25-(OH)2-vitamin D3]: the cross-reaction result in data set [1] (setting [4]) was “no cross-reactivity”.

Regarding `C=C1CC[C@H](OCCCNC(=O)CCCCCNC(=O)CCCCC2SCC3NC(=O)NC32)C/C1=C/C=C1\CCC[C@@]2(C)C1CC[C@@H]2C(C)CCCC(C)(C)O` (stereo partly drawn) [Biotin-25OH-D3, 25-Hydroxy vitamin D3-3β-3′[6-N-(biotinyl)hexamido]-amidopropylether], the B/Bo amounted to 100 in data set [2] (Conc. 0.1 ng/ml); 99 in data set [2] (Conc. 1 ng/ml); 63 in data set [2] (Conc. 10 ng/ml); 15 in data set [2] (Conc. 100 ng/ml); 8 in data set [2] (Conc. 1000 ng/ml). Besides, the “HPLC analysis, compound intact” value in data set [3] (Sample 1: light excluded at -20EC) and in data set [3] (Sample 2: light excluded at +4-6EC) was “intact” in each case. Moreover, in data set [3] (Sample 3: light excluded at room temperature, after 100 days), the “HPLC analysis, compound still intact” value is given as “more than 78%”. In data set [3] (Sample 4: strong light (window ledge) at room temperature), the degradation result was “degraded after two months”.

In data set [1] (125 nmol/l added to serum treated with activated charcoal), `C=C1CC[C@H](O)C/C1=C/C=C1\CCC[C@]2(C)[C@@H]([C@H](C)/C=C/[C@H](C)C(C)(C)O)CC[C@@H]12` [25-OH-vitamin D2] gave a cross-reaction of 60%.

Source of the values: patent US8133694B2, “Functional vitamin D derivatives and method of determining 25-hydroxy- and 1α, 25-dihydroxy vitamin D” (Immundiagnostik AG, priority 1998, dated 2012).
